Experimental findings from patent US20230143604A1, “QW DOSING OF GIP RECEPTOR AGONIST PEPTIDE COMPOUNDS AND USES THEREOF” (TAKEDA PHARMACEUTICAL COMPANY LIMITED, priority 2020, published 2023) are described below.

The data set can be described thus: physchem. In short, it runs like this: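 3 mg of peptide treated with 100 μL portions of 200 mM phosphate buffer pH 7.4, sonicating/vortexing up to 1 min, with further buffer added until fully dissolved. Solubility then quantified by HPLC.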
Where [1] appears, read: pH 7.4, aqueous buffer, pH 7.4 Phosphate Buffer - Solubility, 200 mM Phosphate buffer pH 7.4.
The mark [2] stands for this setting: pH 7.4, solubility in phosphate buffer at pH 7.4, 200 mM phosphate buffer pH 7.4.

Usually solubility stands for the dissolved amount per volume that the medium holds. Read a low solubility as a poorly soluble substance.

Each structure is given as a SMILES string. Starred links: 1 amine or outer side, 2 acyl side, 3 side chain; linkers in the order of their positions; H or OH if unused. Non-standard residues stand in square brackets, D forms with d. Residues, ends and D or L forms follow the SMILES beside them. Groups on a side chain read outwards from the residue. *: point of attachment. C18 diacid = O=C(O)CCCCCCCCCCCCCCCCC(=O)*; C17 diacid = O=C(O)CCCCCCCCCCCCCCCC(=O)*; γGlu = O=C(O)[C@H](CCC(=O)[*:2])N[*:1]; NMeY = CN[C@@H](Cc1ccc(O)cc1)C(=O)O; AEEA = NCCOCCOCC(=O)O; Aib = CC(C)(N)C(=O)O

Take `CC[C@H](C)[C@H](NC(=O)[C@H](CO)NC(=O)[C@H](Cc1ccc(O)cc1)NC(=O)[C@H](CC(=O)O)NC(=O)[C@H](CO)NC(=O)[C@@H](NC(=O)[C@H](Cc1ccccc1)NC(=O)[C@@H](NC(=O)CNC(=O)[C@H](CCC(=O)O)NC(=O)C(C)(C)NC(=O)[C@H](Cc1ccc(O)cc1)NC)[C@@H](C)O)[C@@H](C)CC)C(=O)N[C@@H](C)C(=O)N[C@@H](CCCCNC(=O)CNC(=O)CNC(=O)CNC(=O)CNC(=O)CNC(=O)CCCCCCCCCCCCCCCCC(=O)O)C(=O)N[C@@H](CC(=O)O)C(=O)N[C@@H](CCCNC(=N)N)C(=O)NC(C)(C)C(=O)N[C@@H](C)C(=O)N[C@@H](CCC(N)=O)C(=O)NC(C)(C)C(=O)N[C@@H](CC(=O)O)C(=O)N[C@@H](Cc1ccccc1)C(=O)N[C@H](C(=O)N[C@@H](CCC(=O)O)C(=O)N[C@@H](Cc1c[nH]c2ccccc12)C(=O)N[C@@H](CC(C)C)C(=O)N[C@@H](CC(C)C)C(=O)N[C@@H](C)C(=O)N[C@@H](CCC(N)=O)C(=O)N[C@@H](CO)C(=O)N1CCC[C@H]1C(=O)NCC(=O)O)C(C)C` [Compound 118]: the solubility was at least 15 mg/mL (pH 7.4) and at least 30 mg/mL (pH 7.4, aqueous buffer).

Take `CC[C@H](C)[C@H](NC(=O)[C@H](Cc1ccccc1)NC(=O)[C@@H](NC(=O)CNC(=O)[C@H](CCC(=O)O)NC(=O)C(C)(C)NC(=O)[C@H](Cc1ccc(O)cc1)NC)[C@@H](C)O)C(=O)N[C@@H](CO)C(=O)N[C@@H](CC(=O)O)C(=O)N[C@@H](Cc1ccc(O)cc1)C(=O)N[C@@H](CO)C(=O)N[C@H](C(=O)NC(C)(C)C(=O)N[C@@H](CC(C)C)C(=O)N[C@@H](CC(=O)O)C(=O)N[C@@H](CCCNC(=N)N)C(=O)NC(C)(C)C(=O)N[C@@H](CCCCNC(=O)COCCOCCNC(=O)COCCOCCNC(=O)CC[C@H](NC(=O)CC[C@H](NC(=O)CCCCCCCCCCCCCCCCC(=O)O)C(=O)O)C(=O)O)C(=O)N[C@@H](CCC(N)=O)C(=O)NC(C)(C)C(=O)N[C@@H](CC(=O)O)C(=O)N[C@@H](Cc1ccccc1)C(=O)N[C@H](C(=O)N[C@@H](CC(N)=O)C(=O)N[C@@H](Cc1c[nH]c2ccccc12)C(=O)N[C@@H](CC(C)C)C(=O)N[C@@H](CC(C)C)C(=O)N[C@@H](C)C(=O)N[C@@H](CCC(N)=O)C(=O)N[C@@H](CO)C(=O)N1CCC[C@H]1C(=O)NCC(=O)O)C(C)C)[C@@H](C)CC` [Compound 87] (H-[NMeY][Aib]EGTFISDYSI[Aib]LDR[Aib]K([AEEA-AEEA-γGlu-γGlu-C18 diacid])Q[Aib]DFVNWLLAQSPG-OH): the solubility was at least 15 mg/mL (pH 7.4) and at least 30 mg/mL (pH 7.4, aqueous buffer).

Regarding `CC[C@H](C)[C@H](NC(=O)[C@H](CO)NC(=O)[C@H](Cc1ccc(O)cc1)NC(=O)[C@H](CC(=O)O)NC(=O)[C@H](CO)NC(=O)[C@@H](NC(=O)[C@H](Cc1ccccc1)NC(=O)[C@@H](NC(=O)CNC(=O)[C@H](CCC(=O)O)NC(=O)C(C)(C)NC(=O)[C@H](Cc1ccc(O)cc1)NC)[C@@H](C)O)[C@@H](C)CC)C(=O)N[C@@H](C)C(=O)N[C@@H](CCCCNC(=O)CNC(=O)CNC(=O)CNC(=O)CNC(=O)CNC(=O)CC[C@H](NC(=O)CCCCCCCCCCCCCCCC(=O)O)C(=O)O)C(=O)N[C@@H](CC(=O)O)C(=O)N[C@@H](CCCNC(=N)N)C(=O)NC(C)(C)C(=O)N[C@@H](C)C(=O)N[C@@H](CCC(N)=O)C(=O)NC(C)(C)C(=O)N[C@@H](CC(=O)O)C(=O)N[C@@H](Cc1ccccc1)C(=O)N[C@H](C(=O)N[C@@H](CC(N)=O)C(=O)N[C@@H](Cc1c[nH]c2ccccc12)C(=O)N[C@@H](CC(C)C)C(=O)N[C@@H](CC(C)C)C(=O)N[C@@H](C)C(=O)N[C@@H](CCC(N)=O)C(=O)N[C@@H](CCCNC(=N)N)C(=O)N1CCC[C@H]1C(=O)N[C@@H](CO)C(=O)N[C@@H](CO)C(=O)NCC(=O)N[C@@H](C)C(=O)N1CCC[C@H]1C(=O)N1CCC[C@H]1C(=O)N1CCC[C@H]1C(=O)N[C@@H](CO)C(N)=O)C(C)C` [Compound 22], the solubility under setting [1] was at least 30 mg/mL and the solubility under setting [2] is at least 15 mg/mL.

On to `CC[C@H](C)[C@H](NC(=O)[C@H](CO)NC(=O)[C@H](Cc1ccc(O)cc1)NC(=O)[C@H](CC(=O)O)NC(=O)[C@H](CO)NC(=O)[C@@H](NC(=O)[C@H](Cc1ccccc1)NC(=O)[C@@H](NC(=O)CNC(=O)[C@H](CCC(=O)O)NC(=O)C(C)(C)NC(=O)[C@@H](N)Cc1ccc(O)cc1)[C@@H](C)O)[C@@H](C)CC)C(=O)N[C@@H](C)C(=O)N[C@@H](CC(C)C)C(=O)N[C@@H](CC(=O)O)C(=O)N[C@@H](CCCCN)C(=O)N[C@@H](C)C(=O)N[C@@H](CCCCNC(=O)COCCOCCNC(=O)COCCOCCNC(=O)CC[C@H](NC(=O)CCCCCCCCCCCCCCCCC(=O)O)C(=O)O)C(=O)N[C@@H](CCC(N)=O)C(=O)NC(C)(C)C(=O)N[C@@H](CC(=O)O)C(=O)N[C@@H](Cc1ccccc1)C(=O)N[C@H](C(=O)N[C@@H](CCC(=O)O)C(=O)N[C@@H](Cc1c[nH]c2ccccc12)C(=O)N[C@@H](CC(C)C)C(=O)N[C@@H](CC(C)C)C(=O)N[C@@H](C)C(=O)N[C@@H](CCC(N)=O)C(=O)N[C@@H](CCCNC(=N)N)C(=O)NCC(=O)O)C(C)C` [Compound 161] (H-Y[Aib]EGTFISDYSIALDKAK([AEEA-AEEA-γGlu-C18 diacid])Q[Aib]DFVEWLLAQRG-OH), for which the solubility is at least 15 mg/mL (pH 7.4) and at least 30 mg/mL (pH 7.4, aqueous buffer).

`CC[C@H](C)[C@H](NC(=O)[C@H](Cc1ccccc1)NC(=O)[C@@H](NC(=O)CNC(=O)[C@H](CCC(=O)O)NC(=O)C(C)(C)NC(=O)[C@H](Cc1ccc(O)cc1)NC)[C@@H](C)O)C(=O)N[C@@H](CO)C(=O)N[C@@H](CC(=O)O)C(=O)N[C@@H](Cc1ccc(O)cc1)C(=O)N[C@@H](CO)C(=O)N[C@H](C(=O)NC(C)(C)C(=O)N[C@@H](CC(C)C)C(=O)N[C@@H](CC(=O)O)C(=O)N[C@@H](CCCNC(=N)N)C(=O)NC(C)(C)C(=O)N[C@@H](C)C(=O)N[C@@H](CCC(N)=O)C(=O)NC(C)(C)C(=O)N[C@@H](CCCCNC(=O)COCCOCCNC(=O)COCCOCCNC(=O)CC[C@H](NC(=O)CC[C@H](NC(=O)CCCCCCCCCCCCCCCC(=O)O)C(=O)O)C(=O)O)C(=O)N[C@@H](Cc1ccccc1)C(=O)N[C@H](C(=O)N[C@@H](CC(N)=O)C(=O)N[C@@H](Cc1c[nH]c2ccccc12)C(=O)N[C@@H](CC(C)C)C(=O)N[C@@H](CC(C)C)C(=O)N[C@@H](C)C(=O)N[C@@H](CCC(N)=O)C(=O)N[C@@H](CO)C(=O)N1CCC[C@H]1C(=O)N[C@@H](CO)C(=O)N[C@@H](CO)C(=O)NCC(=O)N[C@@H](C)C(=O)N1CCC[C@H]1C(=O)N1CCC[C@H]1C(=O)N1CCC[C@H]1C(=O)N[C@@H](CO)C(N)=O)C(C)C)[C@@H](C)CC` [Compound 94] (H-[NMeY][Aib]EGTFISDYSI[Aib]LDR[Aib]AQ[Aib]K([AEEA-AEEA-γGlu-γGlu-C17 diacid])FVNWLLAQSPSSGAPPPS-NH2): the solubility was at least 60 mg/mL under setting [1] and at least 15 mg/mL under setting [2].
